Source: patent US8163793B2, “Proline derivatives” (Hoffman-La Roche Inc., priority 2009, dated 2012)

Assays:
Cat L = Cat L (UniProt P07711); assay: Cathepsin enzyme inhibition assay (fluorogenic peptide substrate Z-Val-Val-Arg-AMC), Cathepsin L; format: biochemical, human and mouse; settings: enzyme 1 nM, substrate 20 μM, pH 6.5; read-out: CatL IC50
Summary of the method: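 Cathepsin L at 1 nM was mixed with compound, then started with 20 μM Z-Val-Val-Arg-AMC in pH 6.5 potassium phosphate with EDTA, Triton X-100 and 5 mM DTT. AMC fluorescence (ex 360/em 465 nm) was followed over 20 min. IC50 is given in μM.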

Cathepsin S = Cathepsin S (UniProt P25774); assay: Cathepsin enzyme inhibition assay (fluorogenic peptide substrate Z-Val-Val-Arg-AMC), Cathepsin S; format: biochemical, human and mouse; settings: enzyme 1 nM, substrate 20 μM, pH 6.5; read-out: CatS IC50
Summary of the method: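 Human or mouse cathepsin S (1 nM) was run in 100 mM potassium phosphate pH 6.5 with 5 mM EDTA, 0.001% Triton X-100 and 5 mM DTT. The rise in AMC fluorescence from cleavage was measured, and IC50 values were calculated by standard methods and expressed in μM.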

Row | Structure (SMILES) | IC50 (Cat L) [nM] | IC50 (Cathepsin S) [nM]
1 | CC(C)CC(=O)N1C[C@H](S(=O)(=O)c2ccc(OCC(F)(F)F)cc2Cl)C[C@H]1C(=O)NC1(C#N)CC1 [Example 180, (2S,4R)-4-[2-Chloro-4-(2,2,2-trifluoro-ethoxy)-benzenesulfonyl]-1-(3-methyl-butyryl)-pyrrolidine-2-carboxylic acid (1-cyano-cyclopropyl)-amide] | 21400 | 0.47
2 | N#CC1(NC(=O)[C@@H]2C[C@@H](S(=O)(=O)c3ccc(F)cc3Cl)CN2)CC1 [Example 144, (2S,4R)-4-(2-Chloro-4-fluoro-benzenesulfonyl)-pyrrolidine-2-carboxylic acid (1-cyano-cyclopropyl)-amide] | 28200 | 9.7
3 | COC(=O)c1ccc(C(=O)N2C[C@H](S(=O)(=O)c3ccccc3C(F)(F)F)C[C@H]2C(=O)NC2(C#N)CC2)cc1 [Example 118, 4-[(2S,4R)-2-(1-Cyano-cyclopropylcarbamoyl)-4-(2-trifluoromethyl-benzenesulfonyl)-pyrrolidine-1-carbonyl]-benzoic acid methyl ester] | ≥ 25000 | 0.9
4 | Cc1cc(N2C[C@H](S(=O)(=O)c3ccccc3C(F)(F)F)C[C@H]2C(=O)NC2(C#N)CC2)n(-c2ccnc(Cl)c2)n1 [Example 193, (2S,4R)-1-[2-(2-Chloro-pyridin-4-yl)-5-methyl-2H-pyrazol-3-yl]-4-(2-trifluoromethyl-benzenesulfonyl)-pyrrolidine-2-carboxylic acid (1-cyano-cyclopropyl)-amide] | 28500 | 0.2
5 | CN1CCN(c2ccc(S(=O)(=O)[C@@H]3C[C@@H](C(=O)NC4(C#N)CC4)N(C(=O)OC(C)(C)C)C3)c(C(F)(F)F)c2)CC1 [Example 8, (2S,4R)-2-(1-Cyano-cyclopropylcarbamoyl)-4-[4-(4-methyl-piperazin-1-yl)-2-trifluoromethyl-benzenesulfonyl]-pyrrolidine-1-carboxylic acid tert-butyl ester] | ≥ 25000 | 0.7
6 | CC(C)(C)OC(=O)N1C[C@H](S(=O)(=O)c2ccc(F)cc2F)C[C@H]1C(=O)NC1(C#N)CC1 [Example 6, (2S,4R)-2-(1-Cyano-cyclopropylcarbamoyl)-4-(2,4-difluoro-benzenesulfonyl)-pyrrolidine-1-carboxylic acid tert-butyl ester] | ≥ 25000 | 38.5
7 | Cc1cc(N2C[C@H](S(=O)(=O)c3ccccc3C(F)(F)F)C[C@H]2C(=O)NC2(C#N)CC2)n(-c2ccc(C(F)(F)F)cc2)n1 [Example 232, (2S,4R)-1-[5-Methyl-2-(4-trifluoromethyl-phenyl)-2H-pyrazol-3-yl]-4-(2-trifluoromethyl-benzenesulfonyl)-pyrrolidine-2-carboxylic acid (1-cyano-cyclopropyl)-amide] | 12800 | 0.21
8 | N#CC1(NC(=O)C2C[C@@H](S(=O)(=O)c3ccc(OCC(F)(F)F)cc3Cl)CN2C=O)CC1 (stereo partly drawn) [Example 182, (R)-4-[2-Chloro-4-(2,2,2-trifluoro-ethoxy)-benzenesulfonyl]-1-formyl-pyrrolidine-2-carboxylic Acid (1-cyano-cyclopropyl)-amide] | ≥ 25000 | 9.7
9 | N#CC1(NC(=O)[C@@H]2C[C@@H](S(=O)(=O)c3ccccc3Cl)CN2CC(F)(F)F)CC1 [Example 89, (2S,4R)-4-(2-Chloro-benzenesulfonyl)-1-(2,2,2-trifluoro-ethyl)-pyrrolidine-2-carboxylic acid (1-cyano-cyclopropyl)-amide] | ≥ 25000 | 110
10 | N#CC1(NC(=O)[C@@H]2C[C@@H](S(=O)(=O)c3ccccc3Cl)CN2C(=O)C2(c3ccc(OC(F)(F)F)cc3)CC2)CC1 [Example 281, (2S,4R)-4-(2-Chloro-benzenesulfonyl)-1-[1-(4-trifluoromethoxy-phenyl)-cyclopropanecarbonyl]-pyrrolidine-2-carboxylic acid (1-cyano-cyclopropyl)-amide] | 145 | 0.28
11 | N#CC1(NC(=O)[C@@H]2C[C@@H](S(=O)(=O)c3ccc(N4CCCCC4)cc3Cl)CN2C=O)CC1 [Example 146, (2S,4R)-4-(2-Chloro-4-piperidin-1-yl-benzenesulfonyl)-1-formyl-pyrrolidine-2-carboxylic acid (1-cyano-cyclopropyl)-amide formiate] | 25500 | 6.4
12 | N#CC1(NC(=O)[C@@H]2C[C@@H](S(=O)(=O)c3ccc(OCC(F)(F)F)cc3Cl)CN2C(=O)C2(C(F)(F)F)CC2)CC1 [Example 172, (2S,4R)-4-[2-Chloro-4-(2,2,2-trifluoro-ethoxy)-benzenesulfonyl]-1-(1-trifluoromethyl-cyclopropanecarbonyl)-pyrrolidine-2-carboxylic acid (1-cyano-cyclopropyl)-amide] | 8930 | 0.4
13 | N#CC1(NC(=O)[C@@H]2C[C@@H](S(=O)(=O)c3ccccc3Cl)CN2CCC(F)(F)F)CC1 [Example 91, (2S,4R)-4-(2-Chloro-benzenesulfonyl)-1-(3,3,3-trifluoro-propyl)-pyrrolidine-2-carboxylic acid (1-cyano-cyclopropyl)-amide] | ≥ 25000 | 120
14 | N#CC1(NC(=O)[C@@H]2C[C@@H](S(=O)(=O)c3ccccc3Cl)CN2C=O)CC1 [Example 78, (2S,4R)-4-(2-Chloro-benzenesulfonyl)-1-formyl-pyrrolidine-2-carboxylic acid (1-cyano-cyclopropyl)-amide] | ≥ 25000 | 18.5
15 | N#CC1(NC(=O)[C@@H]2C[C@@H](S(=O)(=O)c3ccc(N4CCC(C(F)(F)F)CC4)cc3Cl)CN2C(=O)C2(C(F)(F)F)CC2)CC1 [Example 156, (2S,4R)-4-[2-Chloro-4-(4-trifluoromethyl-piperidin-1-yl)-benzenesulfonyl]-1-(1-trifluoromethyl-cyclopropanecarbonyl)-pyrrolidine-2-carboxylic acid (1-cyano-cyclopropyl)-amide] | 4400 | 0.4
16 | N#CC1(NC(=O)[C@@H]2C[C@@H](S(=O)(=O)c3ccc(OC4COC4)cc3Cl)CN2C(=O)C2(C(F)(F)F)CC2)CC1 [Example 201, (2S,4R)-4-[2-Chloro-4-(oxetan-3-yloxy)-benzenesulfonyl]-1-(1-trifluoromethyl-cyclopropanecarbonyl)-pyrrolidine-2-carboxylic acid (1-cyano-cyclopropyl)-amide] | ≥ 25000 | 3.4

Next, values leading:

Row | IC50 (Cat L) [nM] | IC50 (Cathepsin S) [nM] | Structure (SMILES)
17 | 120 | 0.83 | N#CC1(NC(=O)[C@@H]2C[C@@H](S(=O)(=O)c3ccc(OCC(F)(F)F)cc3Cl)CN2C(=O)C2(c3cccc4ccccc34)OCCO2)CC1 [Example 390, (2S,4R)-4-[2-Chloro-4-(2,2,2-trifluoro-ethoxy)-benzenesulfonyl]-1-(2-naphthalen-1-yl-[1,3]dioxolane-2-carbonyl)-pyrrolidine-2-carboxylic acid (1-cyano-cyclopropyl)-amide]
18 | 70300 | 0.915 | N#CC1(NC(=O)C2CC(S(=O)(=O)c3ccccc3C(F)(F)F)CN2c2cccc3ccccc23)CC1 (stereo not drawn) [Example 345, 1-Naphthalen-1-yl-4-(2-trifluoromethyl-benzenesulfonyl)-pyrrolidine-2-carboxylic acid (1-cyano-cyclopropyl)-amide]
19 | 31800 | 0.06 | CC(=O)Nc1cccc(-n2nc(C)cc2N2C[C@H](S(=O)(=O)c3ccccc3C(F)(F)F)C[C@H]2C(=O)NC2(C#N)CC2)c1 [Example 356, (2S,4R)-1-[2-(3-Acetylamino-phenyl)-5-methyl-2H-pyrazol-3-yl]-4-(2-trifluoromethyl-benzenesulfonyl)-pyrrolidine-2-carboxylic acid (1-cyano-cyclopropyl)-amide]
20 | 29.5 | 0.895 | N#CC1(NC(=O)[C@@H]2C[C@@H](S(=O)(=O)c3ccccc3Cl)CN2C(=O)C2(c3ccc(Cl)cc3F)CC2)CC1 [Example 439, (2S,4R)-1-(1-(4-chloro-2-fluorophenyl)cyclopropanecarbonyl)-4-(2-chlorophenylsulfonyl)-N-(1-cyanocyclopropyl)pyrrolidine-2-carboxamide]
21 | 26.3 | 0.08 | CC(C)(C)N1CCN(c2ccc(S(=O)(=O)[C@@H]3C[C@@H](C(=O)NC4(C#N)CC4)N(C(=O)C4(c5ccc(Cl)nc5)CC4)C3)c(Cl)c2)CC1 [Example 371, (2S,4R)-4-[4-(4-tert-Butyl-piperazin-1-yl)-2-chloro-benzenesulfonyl]-1-[1-(6-chloro-pyridin-3-yl)-cyclopropanecarbonyl]-pyrrolidine-2-carboxylic acid (1-cyano-cyclopropyl)-amide; Compound with Formic Acid]
22 | ≥ 25000 | 725 | Cc1cc(N2C[C@H](S(=O)(=O)CC3CC3)C[C@H]2C(=O)NC2(C#N)CC2)n(Cc2ccccc2)n1 [Example 445, (2S,4R)-1-(2-Benzyl-5-methyl-2H-pyrazol-3-yl)-4-cyclopropylmethanesulfonyl-pyrrolidine-2-carboxylic acid (1-cyano-cyclopropyl)-amide]
23 | 4820 | 0.44 | N#CC1(NC(=O)[C@@H]2C[C@@H](S(=O)(=O)c3ccccc3Cl)CN2S(=O)(=O)c2ccc(-c3cnco3)cc2)CC1 [Example 323, (2S,4R)-4-(2-Chloro-benzenesulfonyl)-1-(4-oxazol-5-yl-benzenesulfonyl)-pyrrolidine-2-carboxylic acid (1-cyano-cyclopropyl)-amide]
24 | 26400 | 0.975 | Cc1cc(N2C[C@H](S(=O)(=O)c3ccccc3C(F)(F)F)C[C@H]2C(=O)NC2(C#N)CC2)n(CC(C)C)n1 [Example 340, (2S,4R)-1-(2-Isobutyl-5-methyl-2H-pyrazol-3-yl)-4-(2-trifluoromethyl-benzenesulfonyl)-pyrrolidine-2-carboxylic acid (1-cyano-cyclopropyl)-amide]
